System: 242566-281-R-J2-PDC complex spheroid viability
Assay: Anticancer human tumor 242566-281-R-J2-PDC patient-derived pancreatic carcinoma cell line growth inhibition [RAS]
Details: for IC50: curve of first compound; for viability, T/C: stronger effect = lower value
Summary of the method: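 Agents were tested in combination matrices in half-log decrements from a top concentration at or near clinical Cmax (10 microM if undetermined). Targets were multi-cell spheroids of tumour lines plus HUVEC and MSC stromal cells.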

[1] = second compound 0.0316 µM, first compound 0.0316 µM
[2] = second compound 0.0316 µM, first compound 0.1 µM
[3] = second compound 0.0316 µM, first compound 0.316 µM
[4] = second compound 0.0316 µM, first compound 1 µM
[5] = second compound 0.1 µM, first compound 0.0316 µM
[6] = second compound 0.1 µM, first compound 0.1 µM
[7] = second compound 0.1 µM, first compound 0.316 µM
[8] = second compound 0.1 µM, first compound 1 µM
[9] = second compound 0.316 µM, first compound 0.0316 µM
[10] = second compound 0.316 µM, first compound 0.1 µM
[11] = second compound 0.316 µM, first compound 0.316 µM
[12] = second compound 0.316 µM, first compound 1 µM
[13] = second compound 1 µM, first compound 0.0316 µM
[14] = second compound 1 µM, first compound 0.1 µM
[15] = second compound 1 µM, first compound 0.316 µM
[16] = second compound 1 µM, first compound 1 µM
[17] = second compound 0.0316 µM, first compound 3.16 µM
[18] = second compound 0.0316 µM, first compound 10 µM
[19] = second compound 0.1 µM, first compound 3.16 µM
[20] = second compound 0.1 µM, first compound 10 µM
[21] = second compound 0.316 µM, first compound 3.16 µM
[22] = second compound 0.316 µM, first compound 10 µM
[23] = second compound 1 µM, first compound 3.16 µM
[24] = second compound 1 µM, first compound 10 µM
[25] = second compound 3.16 µM, first compound 0.0316 µM
[26] = second compound 3.16 µM, first compound 0.1 µM
[27] = second compound 3.16 µM, first compound 0.316 µM
[28] = second compound 3.16 µM, first compound 1 µM
[29] = second compound 3.16 µM, first compound 3.16 µM
[30] = second compound 3.16 µM, first compound 10 µM
[31] = second compound 10 µM, first compound 0.0316 µM
[32] = second compound 10 µM, first compound 0.1 µM
[33] = second compound 10 µM, first compound 0.316 µM
[34] = second compound 10 µM, first compound 1 µM
[35] = second compound 10 µM, first compound 3.16 µM
[36] = second compound 10 µM, first compound 10 µM
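Note: spheroids exposed to compound for 7 days before readout.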
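Throughout, for viability, T/C: 100% = DMSO vehicle control wells.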

SMILES: C=CC(=O)Nc1cc(Nc2nccc(-c3cn(C)c4ccccc34)n2)c(OC)cc1N(C)CCN(C)C + C=CC(=O)N1CCN(c2nc(OCC3CCCN3C)nc3c(F)c(-c4nc(N)cc(C)c4C(F)(F)F)c(Cl)cc23)C(C)C1
- IC50 (second compound 0.00316 µM): > 1 µM
- IC50 (second compound 0.01 µM): > 1 µM
- IC50 (second compound 0.0316 µM): > 1 µM
- IC50 (second compound 0.1 µM): > 1 µM
- IC50 (second compound 0.316 µM): > 1 µM
- IC50 (second compound 1 µM): > 1 µM
- viability, T/C (second compound 0.00316 µM, first compound 0.00316 µM): 95.1%
- viability, T/C (second compound 0.00316 µM, first compound 0.01 µM): 133%
- viability, T/C (second compound 0.00316 µM, first compound 0.0316 µM): 82.7%
- viability, T/C (second compound 0.00316 µM, first compound 0.1 µM): 74.5%
- viability, T/C (second compound 0.00316 µM, first compound 0.316 µM): 80.5%
- viability, T/C (second compound 0.00316 µM, first compound 1 µM): 85.7%
- viability, T/C (second compound 0.01 µM, first compound 0.00316 µM): 97.6%
- viability, T/C (second compound 0.01 µM, first compound 0.01 µM): 138%
- viability, T/C (second compound 0.01 µM, first compound 0.0316 µM): 86.7%
- viability, T/C (second compound 0.01 µM, first compound 0.1 µM): 93.4%
- viability, T/C (second compound 0.01 µM, first compound 0.316 µM): 86.1%
- viability, T/C (second compound 0.01 µM, first compound 1 µM): 84.8%
- viability, T/C (second compound 0.0316 µM, first compound 0.00316 µM): 109%
- viability, T/C (second compound 0.0316 µM, first compound 0.01 µM): 121%
- viability, T/C [1]: 90.7%
- viability, T/C [2]: 91%
- viability, T/C [3]: 79.8%
- viability, T/C [4]: 78.3%
- viability, T/C (second compound 0.1 µM, first compound 0.00316 µM): 105%
- viability, T/C (second compound 0.1 µM, first compound 0.01 µM): 136%
- viability, T/C [5]: 103%
- viability, T/C [6]: 95.4%
- viability, T/C [7]: 78.9%
- viability, T/C [8]: 76.8%
- viability, T/C (second compound 0.316 µM, first compound 0.00316 µM): 104%
- viability, T/C (second compound 0.316 µM, first compound 0.01 µM): 121%
- viability, T/C [9]: 96.4%
- viability, T/C [10]: 79.2%
- viability, T/C [11]: 95.3%
- viability, T/C [12]: 87.2%
- viability, T/C (second compound 1 µM, first compound 0.00316 µM): 108%
- viability, T/C (second compound 1 µM, first compound 0.01 µM): 129%
- viability, T/C [13]: 81%
- viability, T/C [14]: 112%
- viability, T/C [15]: 83.7%
- viability, T/C [16]: 89.8%

SMILES: CCC(CC)c1cc(NC2CCC(N)C2)n2nccc2n1 (stereo unspecified) + C#Cc1c(F)ccc2cc(O)cc(-c3ncc4c(N5CC6CCC(C5)N6)nc(OCC56CCCN5CC(F)C6)nc4c3F)c12
- IC50 (second compound 0.0316 µM): 2.61 µM
- IC50 (second compound 0.1 µM): 1.89 µM
- IC50 (second compound 0.316 µM): 1.45 µM
- IC50 (second compound 1 µM): 0.893 µM
- IC50 (second compound 3.16 µM): 1.22 µM
- IC50 (second compound 10 µM): 1.17 µM
- viability, T/C [1]: 85.9%
- viability, T/C [2]: 109%
- viability, T/C [3]: 107%
- viability, T/C [4]: 88.9%
- viability, T/C [17]: 42.2%
- viability, T/C [18]: 1.05%
- viability, T/C [5]: 79.1%
- viability, T/C [6]: 92.1%
- viability, T/C [7]: 84.7%
- viability, T/C [8]: 69.3%
- viability, T/C [19]: 33.9%
- viability, T/C [20]: 0.89%
- viability, T/C [9]: 83.6%
- viability, T/C [10]: 85.5%
- viability, T/C [11]: 73.3%
- viability, T/C [12]: 63.4%
- viability, T/C [21]: 26.3%
- viability, T/C [22]: 0.98%
- viability, T/C [13]: 68.2%
- viability, T/C [14]: 67.6%
- viability, T/C [15]: 58.5%
- viability, T/C [16]: 50.6%
- viability, T/C [23]: 14.8%
- viability, T/C [24]: 0.85%
- viability, T/C [25]: 58%
- viability, T/C [26]: 60.2%
- viability, T/C [27]: 56.1%
- viability, T/C [28]: 58.6%
- viability, T/C [29]: 11.1%
- viability, T/C [30]: 0.86%
- viability, T/C [31]: 59.8%
- viability, T/C [32]: 54.8%
- viability, T/C [33]: 52.3%
- viability, T/C [34]: 58.1%
- viability, T/C [35]: 11.5%
- viability, T/C [36]: 0.55%

SMILES: CC(C)NCC(C(=O)N1CCN(c2ncnc3c2C(C)CC3O)CC1)c1ccc(Cl)cc1 (stereo unspecified) + C#Cc1c(F)ccc2cc(O)cc(-c3ncc4c(N5CC6CCC(C5)N6)nc(OCC56CCCN5CC(F)C6)nc4c3F)c12
- IC50 (second compound 0.0316 µM): 7.27 µM
- IC50 (second compound 0.1 µM): 2.95 µM
- IC50 (second compound 0.316 µM): 1.75 µM
- IC50 (second compound 1 µM): 0.701 µM
- IC50 (second compound 3.16 µM): 0.404 µM
- IC50 (second compound 10 µM): 0.392 µM
- viability, T/C [1]: 74.9%
- viability, T/C [2]: 116%
- viability, T/C [3]: 86.2%
- viability, T/C [4]: 84.8%
- viability, T/C [17]: 66.6%
- viability, T/C [18]: 43.7%
- viability, T/C [5]: 97.8%
- viability, T/C [6]: 78.6%
- viability, T/C [7]: 74.5%
- viability, T/C [8]: 54.8%
- viability, T/C [19]: 58%
- viability, T/C [20]: 34.5%
- viability, T/C [9]: 81.2%
- viability, T/C [10]: 81.1%
- viability, T/C [11]: 64.9%
- viability, T/C [12]: 55%
- viability, T/C [21]: 45.8%
- viability, T/C [22]: 23.9%
- viability, T/C [13]: 71.8%
- viability, T/C [14]: 68.3%
- viability, T/C [15]: 59.4%
- viability, T/C [16]: 41.4%
- viability, T/C [23]: 37.5%
- viability, T/C [24]: 18.4%
- viability, T/C [25]: 62.8%
- viability, T/C [26]: 64.2%
- viability, T/C [27]: 53.9%
- viability, T/C [28]: 34.5%
- viability, T/C [29]: 24.8%
- viability, T/C [30]: 16.4%
- viability, T/C [31]: 61.6%
- viability, T/C [32]: 59.6%
- viability, T/C [33]: 52.7%
- viability, T/C [34]: 38.1%
- viability, T/C [35]: 22%
- viability, T/C [36]: 14.3%
